These results are taken from patent US8334295B2, “Pyrimidine derivatives as HIV reverse transcriptase inhibitors” (Korea Research Institute of Chemical Technology, priority 2007, dated 2012).

One data set concerns HIV-IIIb. The experiment in a line: Antiviral assay in MT-2 cells. In kind it is cell-based. The following applies: Human immunodeficiency virus 1, 120 h; HIV-IIIb infected cells, 5 days, CellTiter-Glo; MT-2 or MT-4 cells not stated. The protocol: For the antiviral assay utilizing MT-2 cells, 50 μL of 2× test concentration of 5-fold serially diluted compound in culture medium with 10% FBS was added to each well of a 96-well plate (9 concentrations) in triplicate. MT-2 cells were infected with HIV-IIIb at a multiplicity of infection (m.o.i) of 0.01 for 3 hours. Fifty microliters of infected cell suspension in culture medium with 10% FBS (˜1.5×10^4 cells) was then added to each well containing […] of diluted compound. The plates were then incubated at 37° C. for 5 days. For the antiviral assay utilizing MT-4 cells, 20 μL of 2× test concentration of 5-fold serially diluted compound in culture medium with 10% FBS was added to each well of a 384-well plate (7 concentrations) in triplicate. MT-4 cells were next mixed with HIV-IIIb at an m.o.i. of 0.1 and 20 μl of virus/cell mixture (2000 cells) was immediately added to each well containing […] of diluted compound. The plates were then incubated at 37° C. for 5 days. After 5 days of incubation, 100 μL of CellTiter-Glo™ Reagent (catalog #G7571, Promega Biosciences, Inc., Madison, Wis.) was added to each well containing MT-2 cells and 40 μL to each well containing MT-4 cells. Cell lysis was carried out by incubation at room temperature for 10 min and chemiluminescence was read.
Background: Cellular ATP, detected with luciferase, serves as a proxy for viable cell number.

As usually defined, the EC50 is the concentration at which the effect is half-maximal. In general, melting point refers to the temperature of the solid-liquid transition.

In turn, `CCn1c(C(=O)c2cc(C)cc(C#N)c2)c(C(C)C)c(=O)[nH]c1=O` [Compound 3, 3-(3-ethyl-5-isopropyl-2,6-dioxo-1,2,3,6-tetrahydro-pyrimidine-4-carbonyl)-5-methyl-benzonitrile] had an EC50 in the data set with HIV-IIIb of less than 10 nM.
Same read-out and setting: with `Cc1cc(C#N)cc(C(=O)c2c(C(C)C)c(=O)[nH]c(=O)n2CC2CC2)c1` [Compound 5] the figure was less than 10 nM; with `C/C=C(\Cl)Cn1c(C(=O)c2cc(C)cc(C#N)c2)c(C(C)C)c(=O)[nH]c1=O` [Compound 6], less than 10 nM.
The same measure, in the same setting: under `CCOCn1c(C(=O)c2cc(C)cc(C#N)c2)c(C(C)C)c(=O)[nH]c1=O` [Compound 9] stands less than 10 nM.
`Cc1cc(C#N)cc(C(=O)c2c(C(C)C)c(=O)[nH]c(=O)n2CCCO)c1` [Compound 25]: the melting point lay within 166 to 167 °C. For the same molecule, the EC50 with HIV-IIIb was less than 10 nM.
Molecule `CCOCn1c(C(=O)c2cc(Cl)cc(C#N)c2)c(C(C)C)c(=O)[nH]c1=O` [Compound 38] displayed a melting point of 162 to 164 °C. The molecule further yielded an EC50 with HIV-IIIb of less than 10 nM.
In the same order, the values of `CCCn1c(C(=O)c2cc(C)cc(C#N)c2)c(C(C)C)c(=O)[nH]c1=O` [Compound 46] are 202 to 203 °C and less than 10 nM.
Regarding `CCCCn1c(C(=O)c2cc(C)cc(C#N)c2)c(C(C)C)c(=O)[nH]c1=O` [Compound 47, 3-(3-Butyl-5-isopropyl-2,6-dioxo-1,2,3,6-tetrahydro-pyrimidine-4-carbonyl)-5-methyl-benzonitrile], in the data set with HIV-IIIb, the concentration for a half-maximal effect (EC50) was less than 10 nM.
On the same count and under the same terms, under `CCOCn1c(C(=O)c2cc(C)cc(C)c2)c(C(C)C)c(=O)[nH]c1=O` [Compound 54] stands less than 10 nM; under `CCOCn1c(C(=O)c2cc(C)cc(/C=C/C#N)c2)c(C(C)C)c(=O)[nH]c1=O` [Compound 56], less than 10 nM.
`CCOCn1c(C(F)c2cc(C)cc(C)c2)c(C(C)C)c(=O)[nH]c1=O` (centres unmarked) [Compound 57] registered an EC50 in the data set on HIV-IIIb of less than 10 nM.
Still for that read-out and setting: with `C/C=C/Cn1c(C(=O)c2cc(C)cc(C)c2)c(C(C)C)c(=O)[nH]c1=O` [Compound 60] the figure was less than 10 nM.
`CCCCn1c(C(=O)c2cc(C)cc(C#N)c2)c(CC)c(=O)[nH]c1=O` [Compound 70] yielded a melting point of 190 to 191 °C. The molecule further gave an EC50 in the data set on HIV-IIIb of less than 10 nM.
For `Cc1cc(C=CC#N)cc(C(=O)c2c(C(C)C)c(=O)[nH]c(=O)n2CC2CC2)c1` [Compound 72, 3-[3-(3-Cyclopropylmethyl-5-isopropyl-2,6-dioxo-1,2,3,6-tetrahydro-pyrimidine-4-carbonyl)-5-methyl-phenyl]-acrylonitrile] the same measures were 225 to 226 °C and less than 10 nM.
In the same order, the values of `CCn1c(C(=O)c2cc(C)cc(C=CC#N)c2)c(C(C)C)c(=O)[nH]c1=O` [Compound 73, 3-[3-(3-Ethyl-5-isopropyl-2,6-dioxo-1,2,3,6-tetrahydro-pyrimidine-4-carbonyl)-5-methyl-phenyl]-acrylonitrile] are 174 to 176 °C and less than 10 nM.
In the same order, the values of `CCCCn1c(C(=O)c2cc(C)cc(C=CC#N)c2)c(C(C)C)c(=O)[nH]c1=O` [Compound 74, 3-[3-(3-Butyl-5-isopropyl-2,6-dioxo-1,2,3,6-tetrahydro-pyrimidine-4-carbonyl)-5-methyl-phenyl]-acrylonitrile] are 164 to 165 °C and less than 10 nM.
`CCn1c(C(=O)c2cc(C)cc(CCC#N)c2)c(C(C)C)c(=O)[nH]c1=O` [Compound 75, 3-[3-(3-Ethyl-5-isopropyl-2,6-dioxo-1,2,3,6-tetrahydro-pyrimidine-4-carbonyl)-5-methyl-phenyl]-propionitrile]: the melting point was in the range of 173 to 174 °C.
Regarding `CCCCn1c(C(=O)c2cc(C)cc(CCC#N)c2)c(C(C)C)c(=O)[nH]c1=O` [Compound 76, 3-[3-(3-Butyl-5-isopropyl-2,6-dioxo-1,2,3,6-tetrahydro-pyrimidine-4-carbonyl)-5-methyl-phenyl]-propionitrile], the melting point lay in the range of 172 to 173 °C. In addition, the EC50 with HIV-IIIb is less than 10 nM.
For `Cc1cc(C#N)cc(C(=O)c2c(C(C)C)c(=O)[nH]c(=O)n2C(C)C)c1` [Compound 77, 3-(3,5-Diisopropyl-2,6-dioxo-1,2,3,6-tetrahydro-pyrimidine-4-carbonyl)-5-methyl-benzonitrile], the melting point is 278 to 280 °C.
Regarding `Cc1cc(C#N)cc(C(=O)c2c(C(C)C)c(=O)[nH]c(=O)n2CC(C)C)c1` [Compound 78, 3-(3-Isobutyl-5-isopropyl-2,6-dioxo-1,2,3,6-tetrahydro-pyrimidine-4-carbonyl)-5-methyl-benzonitrile], the melting point fell in the range of 200 to 201 °C.
Same read-out and setting: with `C=CCCn1c(C(=O)c2cc(C)cc(C#N)c2)c(C(C)C)c(=O)[nH]c1=O` [Compound 79, 3-(3-But-3-enyl-5-isopropyl-2,6-dioxo-1,2,3,6-tetrahydro-pyrimidine-4-carbonyl)-5-methyl-benzonitrile] the figure was 133 to 134 °C.
For the molecule `CC=CCn1c(C(=O)c2cc(C)cc(C#N)c2)c(C(C)C)c(=O)[nH]c1=O` [Compound 80, 3-(3-But-2-enyl-5-isopropyl-2,6-dioxo-1,2,3,6-tetrahydro-pyrimidine-4-carbonyl)-5-methyl-benzonitrile], the melting point fell in the range of 177 to 178 °C. The molecule further displayed an EC50 with HIV-IIIb of less than 10 nM.
Consider `Cc1cc(C#N)cc(C(=O)c2c(C(C)C)c(=O)[nH]c(=O)n2CC2(CC(N)=O)CC2)c1` [Compound 85, 2-{1-[6-(3-Cyano-5-methyl-benzoyl)-5-isopropyl-2,4-dioxo-3,4-dihydro-2H-pyrimidin-1-ylmethyl]-cyclopropyl}-acetamide], for which the melting point lay within 283 to 285 °C.
Same read-out and setting: with `CCn1c(C(C#N)c2cc(C)cc(C#N)c2)c(C(C)C)c(=O)[nH]c1=O` (centres unmarked) [Compound 85, 3-[Cyano-(3-ethyl-5-isopropyl-2,6-dioxo-1,2,3,6-tetrahydro-pyrimidin-4-yl)-methyl]-5-methyl-benzonitrile] the figure was 260 to 261 °C.
In turn, `Cc1cc(C#N)cc(C(=O)c2c(C(C)C)c(=O)[nH]c(=O)n2CCOC(N)=O)c1` [Compound 86, Carbamic acid 2-[6-(3-cyano-5-methyl-benzoyl)-5-isopropyl-2,4-dioxo-3,4-dihydro-2H-pyrimidin-1-yl]-ethyl ester] displayed an EC50 in the data set with HIV-IIIb of less than 10 nM.
Same read-out and setting: under `CC=CCn1c(Oc2cc(C)cc(C)c2)c(C(C)C)c(=O)[nH]c1=O` [Compound 115, 1-But-2-enyl-6-(3,5-dimethyl-phenoxy)-5-isopropyl-1H-pyrimidine-2,4-dione] stands less than 10 nM.
